Results reported in patent publication US20260109721A1, “IONIZABLE CATIONIC LIPIDS INCORPORATING SILICON: SYNTHESIS AND LNP FORMULATION” (priority 2023, published 2026).

Tested on: HeLa cells
Test: Transfection efficiency with Luciferase (SecNLuc) mRNA, Nano-Glo assay (Method A)
Format: cell-based
Details: Luc mRNA, 24 h, luminescence; for Transfection 10 ng mRNA: 10 ng mRNA/well; for Transfection 50 ng mRNA: 50 ng mRNA/well; for Transfection 100 ng mRNA: 100 ng mRNA/well
Description: The synthesized lipids were tested in term of in vitro transfection efficacy and toxicity on HeLa cells. In order to perform the mentioned biological tests, appropriate LNPs had to be formulated from the synthesized lipids. The formulation technique was different in Method A and B. The particle size, polydispersity index (PDI) and zeta potential of resulting LNPs were determined by means of Dynamic Light Scattering technique (DLS). Prior to biological testing the encapsulation efficiency (EE) of the loaded LNPs was determined by using RiboGreen RNA assay. In case of Method A Luc mRNA while in case of Method B GFP mRNA was transfected into the cells. In parallel with the transfection experiments, toxicity of the investigated LNPs was determined, in case of Method A resazurin assay while in case of Method B MTT assay was used. Additionally, the toxicity of the lipids was investigated on HepG2 cells and IC50 values were determined.
• 1. Prepare mRNA solution by adding 100 ng mRNA (SecNLuc, #P009024, RiboPro) to 5 μl Opti-MEM • multiply by number of wells, include different concentrations and add 10% extra • a standard set-up we use is 100 ng-50 ng-10 ng mRNA/well in triplicate, which would need […] mRNA (includes 10% extra)
• 2. (If applicable) Prepare different concentrations in Opti-MEM (for instance 100/50/10 ng). • 3. Add 10 μl to each well and mix carefully by pipetting. • 4. Mix by swirling the plate horizontally at modest speed. Reverse in direction 3 times. • 5. Incubate for 24 hours (incubator).
This protocol is applied to measure luciferase activity for secreted NanoLuc and is based on the protocol by Promega (Nano-Glo® Luciferase Assay System #N1110-1150). The protocol is designed for a 384-wells plate, but volumes can be changed accordingly for other plates.
• 1. Plate cells (HeLa) in 96-well plate, grow until 80% confluent and transfect with SecNanoLuc mRNA and incubate for the desired period (24 h). • 2. After incubation, the translated protein is accumulated in the medium. Transfer medium to a new plate or tubes. • 3. Transfer 12 μl of each sample to a black-walled, clear-bottom 384-well plate • Black-walled plates are important to prevent shine-through of luminescence from other wells; alternatively, multiple wells between samples can be left empty. • 4. Set-up plate reader • 5. Prepare the desired amount of Nano-Glo® Luciferase Assay Reagent by combining one volume of Nano-Glo® Luciferase Assay Substrate with 50 volumes of Nano-Glo® Luciferase Assay Buffer: • a. composition: 100 mM MES pH 6; 1 mM EDTA; […]; 150 mM KCl; 1 mM DTT; 35 mM Thiourea; • b. briefly spin tubes containing substrate in a microcentrifuge before use. • 6. Add and mix (by pipetting) 12 μl Nano-Glo® Luciferase Assay Reagent per well • Wait approximately 3 minutes before measuring luminescence. […] Measure luminescence in plate reader using standard protocol luciferase (this includes mixing sample in plate reader)

| SMILES | Transfection 10 ng mRNA | Transfection 50 ng mRNA | Transfection 100 ng mRNA |
| --- | --- | --- | --- |
| CCCCC/C=C\C/C=C\CCCCCCCCOC(CCCCCN(CCO)CCO)O[Si](C)(C)OCCCCCCCC/C=C\C/C=C\CCCCC (stereo not drawn) [Example 39, (21Z,24Z)-3-(2-hydroxyethyl)-11,11-dimethyl-9-(((9Z,12Z)-octadeca-9,12-dien-1-yl)oxy)-10,12-dioxa-3-aza-11-silatriaconta-21,24-dien-1-ol] | 1.46E+05 | 1.40E+06 | 4.78E+06 |
| CCCCC/C=C\C/C=C\CCCCCCCCO[Si](C)(C)OC(CCCCCCC/C=C\C/C=C\CCCCC)OCCCCCCN(CCO)CCO (stereo not drawn) [Example 40, (23Z,26Z)-11-((8Z,11Z)-heptadeca-8,11-dien-1-yl)-3-(2-hydroxyethyl)-13,13-dimethyl-10,12,14-trioxa-3-aza-13-siladotriaconta-23,26-dien-1-ol] | 1.47E+05 | 2.13E+06 | 8.09E+06 |
| CCCCCCCC/C=C\CCCCCCCCOC(CCCCCCCCCCCCCCC)O[Si](C)(C)OCCCCCCN(CCO)CCO (stereo not drawn) [Example 41, (Z)-3-(2-hydroxyethyl)-11,11-dimethyl-13-pentadecyl-10,12,14-trioxa-3-aza-11-siladotriacont-23-en-1-ol] | 3.11E+05 | 3.64E+06 | 1.03E+07 |
| CCCCCCCC/C=C\CCCCCCCC(OCCCCCCCCCCCCCCCC)O[Si](C)(C)OCCCCCCN(CCO)CCO (stereo not drawn) [Example 42, (Z)-13-(heptadec-8-en-1-yl)-3-(2-hydroxyethyl)-11,11-dimethyl-10,12,14-trioxa-3-aza-11-silatriacontan-1-ol] | 6.16E+04 | 1.32E+06 | 5.53E+06 |
| CCCCC/C=C\C/C=C\CCCCCCCCOC(CCCCCCCCCCCCCCC)O[Si](C)(C)OCCCCCCN(CCO)CCO (stereo not drawn) [Example 43, (23Z,26Z)-3-(2-hydroxyethyl)-11,11-dimethyl-13-pentadecyl-10,12,14-trioxa-3-aza-11-siladotriaconta-23,26-dien-1-ol] | 4.81E+05 | 5.50E+06 | 1.32E+07 |
| CCCCC/C=C\C/C=C\CCCCCCCC(OCCCCCCCCCCCCCCCC)O[Si](C)(C)OCCCCCCN(CCO)CCO (stereo not drawn) [Example 44, 13-((8Z,11Z)-heptadeca-8,11-dien-1-yl)-3-(2-hydroxyethyl)-11,11-dimethyl-10,12,14-trioxa-3-aza-11-silatriacontan-1-ol] | 1.57E+05 | 2.08E+06 | 7.09E+06 |
| CCCCC/C=C\C/C=C\CCCCCCCC(OCCCCCCCC/C=C\CCCCCCCC)O[Si](C)(C)OCCCCCCN(CCO)CCO (stereo not drawn) [Example 45, (Z)-13-((8Z,11Z)-heptadeca-8,11-dien-1-yl)-3-(2-hydroxyethyl)-11,11-dimethyl-10,12,14-trioxa-3-aza-11-siladotriacont-23-en-1-ol] | 1.80E+05 | 2.42E+06 | 7.94E+06 |
| CCCCC/C=C\C/C=C\CCCCCCCCOC(CCCCCCC/C=C\CCCCCCCC)O[Si](C)(C)OCCCCCCN(CCO)CCO (stereo not drawn) [Example 46, (23Z,26Z)-13-((Z)-heptadec-8-en-1-yl)-3-(2-hydroxyethyl)-11,11-dimethyl-10,12,14-trioxa-3-aza-11-siladotriaconta-23,26-dien-1-ol] | 1.46E+05 | 1.93E+06 | 8.16E+06 |
| CCCCCCCC/C=C\CCCCCCCCOC(CCCCCCC/C=C\CCCCCCCC)O[Si](C)(C)OCCCCCCN(CCO)CCO (stereo not drawn) [Example 47, (Z)-13-((Z)-heptadec-8-en-1-yl)-3-(2-hydroxyethyl)-11,11-dimethyl-10,12,14-trioxa-3-aza-11-siladotriacont-23-en-1-ol] | 3.37E+04 | 1.29E+06 | 7.06E+06 |
| CCCCCCCCCCCCCCCCOC(CCCCCCCCCCCCCCC)O[Si](C)(C)OCCCCCCN(CCO)CCO (stereo not drawn) [Example 49, 3-(2-hydroxyethyl)-11,11-dimethyl-13-pentadecyl-10,12,14-trioxa-3-aza-11-silatriacontan-1-ol] | 1.35E+05 | 6.74E+05 | 1.20E+06 |
| CCCCCCCC/C=C\CCCCCCCC(OCC(CCCCCC)CCCCCCCC)O[Si](C)(C)OCCCCCCN(CCO)CCO (stereo not drawn) [Example 50, (Z)-13-(heptadec-8-en-1-yl)-16-hexyl-3-(2-hydroxyethyl)-11,11-dimethyl-10,12,14-trioxa-3-aza-11-silatetracosan-1-ol] | 5.85E+04 | 2.12E+06 | 8.19E+06 |
| CCCCCCCC/C=C\CCCCCCCCOC(CC[C@@H](C)C1CCC2C3CCC4C[C@H](OC)CC[C@]4(C)C3CC[C@@]21C)O[Si](C)(C)OCCCCCCN(CCO)CCO (stereo partly drawn) [Example 51, (Z)-3-(2-hydroxyethyl)-13-((3R)-3-((3R,10S,13R)-3-methoxy-10,13-dimethylhexadecahydro-1H-cyclopenta[a]phenanthren-17-yl)butyl)-11,11-dimethyl-10,12,14-trioxa-3-aza-11-siladotriacont-23-en-1-ol] | 1.05E+04 | 1.70E+05 | 7.44E+05 |
| CCCCC/C=C\C/C=C\CCCCCCCCOC(CC[C@@H](C)C1CCC2C3CCC4C[C@H](OC)CC[C@]4(C)C3CC[C@@]21C)O[Si](C)(C)OCCCCCCN(CCO)CCO (stereo partly drawn) [Example 52, (23Z,26Z)-3-(2-hydroxyethyl)-13-((3R)-3-((3R,10S,13R)-3-methoxy-10,13-dimethylhexadecahydro-1H-cyclopenta[a]phenanthren-17-yl)butyl)-11,11-dimethyl-10,12,14-trioxa-3-aza-11-siladotriaconta-23,26-dien-1-ol] | 1.02E+05 | 1.65E+06 | 9.16E+06 |
| CCCCC/C=C\C/C=C\CCCCCCCCOC(CCCCCCC/C=C\C/C=C\CCCCC)O[Si](C)(C)OCCCCCCN1CCOCC1 (stereo not drawn) [Example 55, 4-((20Z,23Z)-10-((8Z,11Z)-heptadeca-8,11-dien-1-yl)-8,8-dimethyl-7,9,11-trioxa-8-silanonacosa-20,23-dien-1-yl)morpholine] | 1.32E+06 | 7.68E+06 | 1.03E+07 |
| CCCCC/C=C\C/C=C\CCCCCCCCOC(CCCCCCC/C=C\C/C=C\CCCCC)O[Si](C)(C)OCCCCCCN1CCCCC1 (stereo not drawn) [Example 57, 1-((20Z,23Z)-10-((8Z,11Z)-heptadeca-8,11-dien-1-yl)-8,8-dimethyl-7,9,11-trioxa-8-silanonacosa-20,23-dien-1-yl)piperidine] | 9.82E+04 | 1.48E+06 | 5.16E+06 |
| CCCCC/C=C\C/C=C\CCCCCCCCOC(CCCCCCC/C=C\C/C=C\CCCCC)O[Si](C)(C)OCCCCCCN(C)CC(O)CO (stereo not drawn) [Example 59, (24Z,27Z)-14-((8Z,11Z)-heptadeca-8,11-dien-1-yl)-4,12,12-trimethyl-11,13,15-trioxa-4-aza-12-silatritriaconta-24,27-diene-1,2-diol] | 9.07E+03 | 2.41E+05 | 5.66E+05 |
| CCCCC/C=C\C/C=C\CCCCCCCCOC(CCCCCCC/C=C\C/C=C\CCCCC)O[Si](C)(C)OCCCCCCN(C)CCCCO (stereo not drawn) [Example 60, (25Z,28Z)-15-((8Z,11Z)-heptadeca-8,11-dien-1-yl)-5,13,13-trimethyl-12,14,16-trioxa-5-aza-13-silatetratriaconta-25,28-dien-1-ol] | 1.76E+05 | 1.12E+06 | 1.81E+06 |
| CCCCC/C=C\C/C=C\CCCCCCCCOC(CCCCCCC/C=C\C/C=C\CCCCC)O[Si](C)(C)OCCCCCCN(CCCCO)CCCCO (stereo not drawn) [Example 62, (25Z,28Z)-15-((8Z,11Z)-heptadeca-8,11-dien-1-yl)-5-(4-hydroxybutyl)-13,13-dimethyl-12,14,16-trioxa-5-aza-13-silatetratriaconta-25,28-dien-1-ol] | 1.95E+05 | 8.70E+05 | 1.68E+06 |
